Source: US8501812B2, “Therapeutic methods for type I diabetes” (University of Massachusetts, priority 2005, dated 2013)

Assays:
JNK2 = biological target: T1, JNK2 (Homo sapiens, UniProt P45984); test: c-Jun phosphorylation assay with His6-JNK2 and GST-c-Jun(1-79), γ-32P ATP; format: biochemical; details: assay consistently shows, despite variability
T1 construct: His6 (N)
Experimental: For example, to 10 μL of 5-amino-anthra(9,1-cd)isothiazol-6-one in 20% DMSO/80% dilution buffer containing of 20 mM HEPES (pH 7.6), 0.1 mM EDTA, 2.5 mM magnesium chloride, 0.004% Triton×100, 2 μg/mL leupeptin, 20 mM β-glycerolphosphate, 0.1 mM sodium vanadate, and 2 mM DTT in water is added 30 μL of 50-200 ng His6-JNK2 in the same dilution buffer. The mixture is pre-incubated for 30 minutes at room temperature. Sixty μL of 10 μg GST-c-Jun(1-79) in assay buffer consisting of 20 mM HEPES (pH 7.6), 50 mM sodium chloride, 0.1 mM EDTA, 24 mM magnesium chloride, 1 mM DTT, 25 mM PNPP, 0.05% Triton×100, 11 μM ATP, and 0.5 μCi γ-32P ATP in water is added and the reaction is allowed to proceed for 1 hour at room temperature. The c-Jun phosphorylation is terminated by addition of 150 μL of 12.5% trichloroacetic acid. After 30 minutes, the precipitate is harvested onto a filter plate, diluted with 50 μL of the scintillation fluid and quantified by a counter. The IC50 values are calculated as the concentration of 5-amino-anthra(9,1-cd)isothiazol-6-one at which the c-Jun phosphorylation is reduced to 50% of the control value. Compounds that inhibit JNK2 preferably have an IC50 value ranging 0.01-10 μM in this assay. 5-Amino-anthra(9,1-cd)isothiazol-6-one has an IC50 according to this assay of 1 μM for JNK2 and 400 nM for JNK3.

[1] = solubility in aqueous media; format: physicochemical

T1 sequence (P45984 whole entry): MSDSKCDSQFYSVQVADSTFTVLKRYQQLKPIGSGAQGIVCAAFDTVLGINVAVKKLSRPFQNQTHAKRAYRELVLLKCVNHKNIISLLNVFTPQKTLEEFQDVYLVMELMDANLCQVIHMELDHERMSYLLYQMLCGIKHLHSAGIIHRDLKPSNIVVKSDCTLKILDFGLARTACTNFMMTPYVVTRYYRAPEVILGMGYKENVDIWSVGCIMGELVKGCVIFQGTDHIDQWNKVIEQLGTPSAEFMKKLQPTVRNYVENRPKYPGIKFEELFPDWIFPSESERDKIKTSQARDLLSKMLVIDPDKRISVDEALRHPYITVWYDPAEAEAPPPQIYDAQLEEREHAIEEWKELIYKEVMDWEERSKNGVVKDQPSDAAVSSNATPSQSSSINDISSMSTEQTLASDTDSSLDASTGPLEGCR

selectivity of JNK2 inhibition (JNK2): selectively inhibits JNK2
solubility in aqueous media [1]: limited solubility
Compound: Nc1ccc2snc3c2c1C(=O)c1ccccc1-3 [5-amino-anthra(9,1-cd)isothiazol-6-one]
